Measurements: patent US8435939B2, “Polypeptide anti-HIV agent containing the same” (priority 2000, dated 2013)
Like-named read-outs stand apart in the source and are kept apart here. Where a SMILES comes first, the peptide text is derived from it. Bridges are numbered along the chain shown (N, C = ends). [ ]: non-standard residue; d: D form. 2Nal = N[C@@H](Cc1ccc2ccccc2c1)C(=O)O; Cit = NC(=O)NCCC[C@H](N)C(=O)O

Assays:
[1] = system: HIV-1 (IIIB) strain; test: Anti-HIV activity: inhibition of MT-4 cell death by HIV infection (MTT method); format: cell-based; settings: for EC50: MT-4 CD4+ T cells infected by HIV-1 (IIIB), 37° C., 5 days, MTT, average of at least three measurements, read-out: EC50 (concentration where MT-4 cell death by HIV infection is inhibited by 50%)
Protocol: (§1) HIV-1 (IIIB) strain obtained from MOLT/HIV-1 (IIIB) cell previously infected by HIV-1 was used. The polypeptide of the present invention was added to MT-4 CD4^+ T cells infected by HIV in various kinds of concentrations, and a number of living cells after culturing at 37° C. for 5 days was determined by using a 3′-(4,5-dimethylthiazol-2-yl)-2,5-diphenyltetrazolinium bromide (MTT) method. Anti-HIV activity is shown by a concentration (EC50 value), where MT-4 cell death by HIV infection is inhibited by 50%. Cytotoxicity of the peptide according to the present invention was shown by a 50% survival concentration (Test I: CC50 value) by culturing virus-uninfected MT-4 cells with the polypeptide according to the present invention in various concentrations, and determining a number of living cells by the MTT method. Moreover, a number of living cells of human peripheral blood mononuclear cells (monocyte) (PBMC) was determined by trypan blue dyeing method, and shown by a 50% survival concentration (Test II: CC50 value). Respective ratios of the CC50 value and the EC50 value were shown as a selective index (SI). Obtained values were summarized in Table 3 using the conventionally known polypeptides T134 and T140, and an anti-HIV compound: 3′-azido-2′,3′-dideoxythymidine (AZT) used as a medicine as a control anti-HIV agent.

[2] = Cytotoxicity Test I: virus-uninfected MT-4 cells, MTT method; format: cell-based; settings: human, virus-uninfected MT-4 cells, MTT method, read-out: CC50 (Test I), 50% survival concentration
Protocol: as §1

[3] = system: virus-uninfected MT-4 cells; test: as above; format: cell-based; settings: for cytotoxicity in words, compared with conventional T134/T140: conclusion drawn from Table 3; for SI: CC50 (Test I)/EC50: selective index, MT-4 CC50 over anti-HIV EC50
Protocol: as §1

[4] = Cytotoxicity Test II: human PBMC, trypan blue dyeing method; format: cell-based; settings: human PBMC, trypan blue dyeing method, read-out: CC50 (Test II), 50% survival concentration
[5] = system: human peripheral blood mononuclear cells (PBMC); test: as above; format: cell-based; settings: selective index, PBMC CC50 over anti-HIV EC50
[6] = in vitro; format: in vitro ADME, cat; settings: serum
Protocol: T140 or TC14012 was dissolved in cat serum (100 μL/100 μL Water) in an amount of 100 nmol, and maintained at 37° C. Each 8 μL of the respective samples were collected after 0 hour, 1 hour, 2 hours, 5 hours and 16 hours, and analyzed by reverse phase HPLC using 16% acetonitrile.

| SMILES | EC50 [1] [µM] | anti-HIV activity in words, compared with T140 ([1]; conclusion drawn from Table 3) | CC50 ([2]; MT-4 cells (virus-uninfected)) [µM] | cytotoxicity in words, compared with conventional T134/T140 [3] | SI: CC50 (Test I)/EC50 [3] | CC50 [4] [µM] | SI: CC50 (Test II)/EC50 [5] | metabolised at 16 h, 0.5 mM [6] [%] | EC50 ([1]; Human immunodeficiency virus 1, MT4, 120 h) [µM] | CC50 [2] [µM] | CC50 ([4]; peripheral blood mononuclear cells (PBMC)) [µM] |
| --- | --- | --- | --- | --- | --- | --- | --- | --- | --- | --- | --- |
| NCCCC[C@@H]1NC(=O)[C@H](CCCN=C(N)N)NC(=O)[C@H](Cc2ccc(O)cc2)NC(=O)[C@@H](NC(=O)[C@H](Cc2ccc3ccccc3c2)NC(=O)[C@H](CCCN=C(N)N)NC(=O)[C@@H](N)CCCN=C(N)N)CSSC[C@@H](C(=O)N[C@@H](CCCN=C(N)N)C(=O)O)NC(=O)[C@H](CCCNC(N)=O)NC(=O)[C@H](CCCN=C(N)N)NC(=O)[C@H](Cc2ccc(O)cc2)NC(=O)[C@@H]2CCCN2C(=O)[C@@H](CCCNC(N)=O)NC1=O [TC14005, H-Arg-Arg-NaI-Cys-Tyr-Arg-Lys-DCit-Pro-Tyr-Arg-Cit-Cys-Arg-OH] | 0.004 | substantially the same anti-HIV activity as that of the conventionally known T140 | > 80 | cytotoxicity is markedly lowered | >20000 | 280 | 69000 |  |  |  |  |
| NCCCC[C@@H]1NC(=O)[C@H](CCCNC(N)=O)NC(=O)[C@H](Cc2ccc(O)cc2)NC(=O)[C@@H](NC(=O)[C@H](Cc2ccc3ccccc3c2)NC(=O)[C@H](CCCN=C(N)N)NC(=O)[C@@H](N)CCCN=C(N)N)CSSC[C@@H](C(=O)N[C@@H](CCCN=C(N)N)C(=O)O)NC(=O)[C@H](CCCNC(N)=O)NC(=O)[C@H](CCCN=C(N)N)NC(=O)[C@H](Cc2ccc(O)cc2)NC(=O)[C@@H]2CCCN2C(=O)[C@@H](CCCCN)NC1=O [TC14003, H-Arg-Arg-Nal-Cys-Tyr-Cit-Lys-DLys-Pro-Tyr-Arg-Cit-Cys-Arg-OH] (H-RR[2Nal]CY[Cit]K[dK]PYR[Cit]CR-OH; disulfide 4-13) |  |  | > 80 | cytotoxicity is markedly lowered | >29000 | 310 | 160000 |  |  |  |  |
| NCCCC[C@H]1NC(=O)[C@H](CCCNC(N)=O)NC(=O)[C@H](CCCN=C(N)N)NC(=O)[C@H](Cc2ccc(O)cc2)NC(=O)[C@@H](NC(=O)[C@H](Cc2ccc3ccccc3c2)NC(=O)[C@H](CCCN=C(N)N)NC(=O)[C@@H](N)CCCN=C(N)N)CSSC[C@@H](C(=O)N[C@@H](CCCN=C(N)N)C(=O)O)NC(=O)[C@H](CCCNC(N)=O)NC(=O)[C@H](CCCN=C(N)N)NC(=O)[C@H](Cc2ccc(O)cc2)NC(=O)[C@@H]2CCCN2C1=O [TC14004, H-Arg-Arg-Nal-Cys-Tyr-Arg-Cit-DLys-Pro-Tyr-Arg-Cit-Cys-Arg-OH] (H-RR[2Nal]CYR[Cit][dK]PYR[Cit]CR-OH; disulfide 4-13) |  |  | > 80 |  | >5000 | 270 | 16000 |  |  |  |  |
| NCCCC[C@@H]1NC(=O)[C@H](CCCN=C(N)N)NC(=O)[C@H](Cc2ccc(O)cc2)NC(=O)[C@@H](NC(=O)[C@H](Cc2ccc3ccccc3c2)NC(=O)[C@H](CCCN=C(N)N)NC(=O)[C@@H](N)CCCN=C(N)N)CSSC[C@@H](C(=O)N[C@@H](CCCN=C(N)N)C(=O)O)NC(=O)[C@H](CCCNC(N)=O)NC(=O)[C@H](CCCN=C(N)N)NC(=O)[C@H](Cc2ccc(O)cc2)NC(=O)[C@@H]2CCCN2C(=O)[C@@H](CCCCN)NC1=O [Compound T140, H-Arg-Arg-Nal-Cys-Tyr-Arg-Lys-DLys-Pro-Tyr-Arg-Cit-Cys-Arg-OH, reference compound] (H-RR[2Nal]CYRK[dK]PYR[Cit]CR-OH; disulfide 4-13) |  |  | > 1 |  | >>300 | 96 | 29000 | ~70 |  |  |  |
| Cc1cn([C@H]2C[C@H](N=[N+]=[N-])[C@@H](CO)O2)c(=O)[nH]c1=O [AZT, 3′-azido-2′,3′-dideoxythymidine, reference compound] |  |  |  |  | 4000 |  | <410 |  | 0.048 | 190 | < 20 |
